Measurements from PubChem BioAssay AID2305 (GlaxoSmithKline (GSK), 2010).
Where “and” joins values, the source holds several entries; their conditions need not be identical. Equal values may be shown once.

Test system: P. falciparum 3D7 growth, pLDH absorbance
Assay: blood-stage malaria parasite growth potency – strain 3D7, dose response (AID 2305)

Row | SMILES | IC50
1 | COc1ccc(CCN2CCC(Nc3nc4ccccc4n3CCc3ccc(OC)cc3)CC2)cc1 | 660 nM
2 | O=C(NCCc1ccccc1)[C@H](Cc1ccccc1)Nc1ccnc(NCC2CCCCC2)n1 | 1380 nM
3 | CC(C)(C)c1ccc2nc(-c3ccc(/C=C/C(=O)NCc4ccc(Cl)c(Cl)c4)cc3)[nH]c2c1 | 40 nM
4 | CC(C)(C)c1nn(-c2ccccc2)c2[nH]c(=O)c(CNC3CCCC3)cc12 | 850 nM
5 | O=C(NC1CCN(CCN2CCC(c3ccccc3C(F)(F)F)CC2)CC1)c1ccc(-c2ccc(Cl)cc2)cc1 | 710 nM
6 | COc1ccc(CN2CCN(CCOC(c3ccccc3)c3ccccc3)CC2)c(O)c1 | 1190 nM
7 | CC(C)CNCc1ccc(OCc2cccc(COc3ccc(CNCC(C)C)cc3I)c2)c(I)c1 | 770 nM
8 | CN(Cc1cnc2nc(N)nc(N)c2n1)c1ccc(C(=O)N[C@H](CCC(=O)OC(C)(C)C)C(=O)N[C@@H](CCC(=O)OC(C)(C)C)C(=O)OC(C)(C)C)cc1 | 1020 nM
9 | Fc1ccc2nc(-c3cccc(-c4ccc(CN5CCCCC5)cc4)c3)[nH]c2c1 | 160 nM
10 | c1ccc(CNCc2cccc(-c3ccc(-c4nc5ccccc5[nH]4)cc3)c2)cc1 | 820 nM
11 | O=C(/C=C/c1ccc(Cl)c(Cl)c1)NCCCCCCN1CCN(C(=O)Nc2ccc(Cl)c(Cl)c2)CC1 | 930 nM
12 | CCN1CCC(N(Cc2ccc(-c3ccc(C(F)(F)F)cc3)o2)C(=O)Cn2c(CCc3cccc(F)c3F)nc(=O)c3ccccc32)CC1 | 1140 nM
13 | CCN1CCN(c2cc(C)c3cc(NC(=O)C=Cc4cccc(OC)c4OC)ccc3n2)CC1 | 700 nM
14 | COc1ccccc1N1CCN(CCCCNC(=O)c2ccc(NC(=O)c3cc(Cl)cc(Cl)c3)cc2)CC1 | 460 nM
15 | CCOc1ccccc1CCNC(C)Cc1ccc(C(=O)Nc2ccc(CC(C)NCCc3cccc(Cl)c3)cc2)cc1 (stereo not given) | 540 nM
16 | CCCCCCCn1c(=N)n(CC(O)c2ccc(Cl)c(Cl)c2)c2ccccc21 (stereo not given) | 780 nM
17 | CCCc1cc(OC)c(CC2c3cc(O)c(Cl)cc3CCN2C)cc1OC (stereo not given) | 570 nM
18 | COc1ccc(-c2ccc(NC(=O)c3ccc(C#N)cc3)cc2)cc1CN1CCNCC1 | 510 nM
19 | O=C(NCc1ccc(Cl)c(Cl)c1)c1cccc(C2CCCN(Cc3ccc4nc[nH]c4c3)C2)c1 (stereo not given) | 930 nM
20 | CC[C@H]1CN2CC[C@@H]1C[C@H]2[C@H](O)c1cc(N2CCC(C)CC2)nc2ccc(OC)cc12 | 170 nM
21 | CC(C)COc1ccc(Cl)cc1Cc1ccc(-c2nc3ccc(CCN(C)C)cc3[nH]2)o1 | 980 nM
22 | Oc1ccc(CCNc2nc(NCc3ccccc3-c3ccc(C(F)(F)F)cc3)nc(N3CCNCC3)n2)cc1 | 870 nM
23 | COc1ccc2ncc(Cl)c([C@H](O)CN3CCC(NCc4cc5c(cn4)OCCO5)CC3)c2c1 | 120 nM
24 | N#Cc1cccc(/C=C/C(=O)NC2CCC(CCN3CCc4ccc(-c5cnccn5)cc4CC3)CC2)c1 (stereo not given) | 770 nM

Row | SMILES | IC50
25 | Cc1ccc(O)cc1Nc1ccnc2ccc(-c3cccc(CN(C)C)c3)cc12 | 510 nM
26 | CN1CCCC(CN2CCN(Cc3cccc(-c4ccc(-c5nc6ccccc6[nH]5)s4)c3)CC2)C1 (stereo not given) | 150 nM
27 | COc1ccc(Nc2cc(C)nc(NCc3ccc4c(c3)OCO4)n2)cc1 | 770 nM
28 | O=C(Cn1cc(C=C2SC(=NC3CCCC3)N(C3CCCC3)C2=O)c2ccccc21)N1CCCC1 | 300 nM
29 | Cc1cc(N2CCCCC2)nc2ccc(NC(=O)c3cccc([N+](=O)[O-])c3)cc12 | 380 nM
30 | COc1ccc2nc(NC3=NC(c4ccccn4)(c4ccccn4)C(=O)N3C)[nH]c2c1 | 590 nM
31 | Cc1sc2cc(Cl)cc(Cl)c2c1S(=O)(=O)Nc1ccc2nccc(N3CCNCC3)c2c1 | 120 nM
32 | COc1ccc(Nc2nccc(-c3cccc(NC(=O)c4cc5cc(F)ccc5[nH]4)c3)n2)cc1 | 1030 nM
33 | Nc1ncc(-c2ccsc2)cc1-c1nc2ccccc2[nH]1 | 850 nM
34 | CN(CCCCCNC(=O)/C=C/c1ccc(Cl)c(Cl)c1)CCc1c[nH]c2ccccc12 | 870 nM
35 | CC1(C)CCCN(Cc2c(O)ccc3c(=O)c(-c4nc5ccccc5s4)c(N)oc23)C1 | 340 nM
36 | Nc1c2c(nc3cc(NC(=O)c4ccc([N+](=O)[O-])cc4)ccc13)CCCC2 | 470 nM
37 | Cc1c(C)c2c(c(C)c1O)CC[C@](C)(C(=O)N1CCC(CN3CCC(c4c[nH]c5ccccc45)CC3)CC1)O2 | 720 nM
38 | O=C(Nc1ccc2c(c1)CCC2)c1ccc(CN2CCCN(Cc3cccc(O)c3)CC2)cc1 | 890 nM
39 | CCCN1CCC(c2c[nH]c3ccc(NC(=O)Nc4cccc(Cl)c4Cl)cc23)CC1 | 810 nM
40 | Oc1ccccc1CNCC12CC3CC(CC(C3)C1)C2 | 280 nM
41 | O=C(Nc1cccc(-c2csc(NC(=O)c3ccc4ccccc4c3)n2)c1)c1ccc2ccccc2c1 | 710 nM
42 | NC(N)=Nc1nc(-c2cccc(NC(=O)NCC(c3ccccc3)c3ccccc3)c2)cs1 | 790 nM
43 | COc1cc2nc(NCC3CCN(c4nc(N)c5cc(OC)c(OC)cc5n4)CC3)nc(N)c2cc1OC | 780 nM
44 | CCC(C(=O)Nc1ccccc1)n1nc(-c2ccc(C)c(S(=O)(=O)N3CCCCC3)c2)ccc1=O (stereo not given) | 1090 nM
45 | c1ccc(-n2cncn2)cc1 | 590 nM
46 | CCOC(=O)c1cn(CC)c2cc(O[C@@H]3CCN(C(=O)OC(C)(C)C)C3)ccc2c1=O | 290 nM
47 | Cc1cccc2[nH]c(-c3cccc(-c4ccc(NC(=O)CC5NC(=O)c6ccccc65)cc4)c3)nc12 (stereo not given) | 290 nM
48 | Nc1ccc(-c2nc3cc(C4=N[C@H]5CCCC[C@H]5N4)ccc3o2)cc1[N+](=O)[O-] | 1120 nM

Row | SMILES | IC50
49 | CCCCc1ccc(S(=O)(=O)Nc2ccc3c(c2)CCN(Cc2c[nH]c4cnccc24)CC3)cc1 | 670 nM
50 | CCOC(=O)C(=CNc1ccc(Cc2cnc(N)nc2N)cc1CC)C(=O)OCC | 1140 nM
51 | O=C(NCCc1ccccc1)c1cc(-c2cccnc2)cnc1NCC1CC1 | 850 nM
52 | CC(=O)Nc1ccc2[nH]cc(C3CCN(CC4CCC(NC(=O)/C=C/c5ccc(Cl)c(Cl)c5)CC4)CC3)c2c1 (stereo not given) | 440 nM and 720 nM
53 | Cc1c(O)cccc1Nc1ccnc2ccc(C(F)(F)F)cc12 | 30 nM
54 | CN(Cc1cnc2nc(N)nc(N)c2n1)c1ccc(C(=O)N[C@H](CCC(=O)O)C(=O)O)cc1 | 100 nM
55 | O=C(Nc1ccc(-c2nc3ccccc3[nH]2)cc1)c1ccc([N+](=O)[O-])s1 | 250 nM
56 | CCCCN1CCN(c2cc(NS(=O)(=O)c3ccc(C(=O)Nc4ccc(C(F)(F)F)cc4)cc3)ccc2OC)CC1 | 660 nM
57 | N#Cc1ccc(NC(=NC2CCCc3ccccc32)Nc2ccc(-c3ccccc3)cc2)c(O)c1 (stereo not given) | 780 nM
58 | Cn1c(Nc2cc(C(C)(C)C)on2)nc2cc(Nc3ccnc(Nc4cccc(CS(C)(=O)=O)c4)n3)ccc21 | 570 nM
59 | Cc1cccc2[nH]c(-c3ccc(-c4cccc(CNCCCN5CCCC5=O)c4)cc3)nc12 | 840 nM
60 | Cc1cccc(-c2nn(-c3ccccc3)cc2C(=O)Nc2nnc(C)o2)c1 | 1160 nM
61 | O=C(N[C@@H](Cc1ccccc1)[C@H](O)CNC1CCCCC1)c1cc(C2CCCC2)cc(N2CCCC2=O)c1 | 170 nM
62 | NCC1CCCN1Cc1cccc(-c2ccc(-c3nc4ccccc4[nH]3)s2)c1 (stereo not given) | 1040 nM
63 | c1ccc2c(NCCCCCCCCNc3ccnc4ccccc34)ccnc2c1 | 160 nM
64 | COc1ccc2c(=O)ccn(CCN3CCC(NCc4ccc5c(n4)NC(=O)CS5)CC3)c2c1 | 230 nM
65 | CCC(CO)NCC(O)Cn1c2ccc(Br)cc2c2cc(Br)ccc21 (stereo not given) | 780 nM
66 | Nc1nc(N)c2cc(C(F)(F)F)ccc2n1 | 1130 nM
67 | NC(=O)c1cccc(Nc2nccc(Nc3ccc(Oc4ccc5ccccc5c4)cc3)n2)c1 | 810 nM
68 | Cn1nc(-c2ccc(S(=O)(=O)N3CCC(CCN4CCC(c5c[nH]c6ccccc56)CC4)CC3)s2)cc1C(F)(F)F | 810 nM
69 | Cc1cccc2[nH]c(-c3ccc(-c4ccc(CN5CCN(C6CCN(C)CC6)CC5)cc4)cc3)nc12 | 100 nM
70 | CN1CCN(CCCN(Cc2cccc(-c3cccc(CNC4CCCC4)c3)c2)C(=O)/C=C/c2ccccc2)CC1 | 780 nM
71 | CC(Sc1n[nH]c(-c2cccs2)n1)C(=O)c1c[nH]c2ccccc12 (stereo not given) | 1800 nM
72 | CCc1sc(CN(CCCNc2cc(=O)c3ccccc3[nH]2)Cc2sc(CC)c(Br)c2-c2ccsc2)c(-c2ccsc2)c1Br | 90 nM

Row | SMILES | IC50
73 | CC(=O)Nc1ccc(CN2CCC(N(C)c3cc(NC(=O)c4ccc(F)cc4)ccn3)CC2)cc1 | 1120 nM
74 | O=C(NC(=O)c1ccccc1O)c1ccccc1O | 700 nM
75 | CN1CCN(c2ccc(Nc3nccc(-c4c(-c5cccc(NC(=O)c6c(F)cccc6F)c5)nn5ccccc45)n3)cc2)CC1 | 110 nM
76 | CCCc1nc2c(N3CCCN(C(=O)NC4CCCCC4)CC3)cccc2n1Cc1ccccn1 | 1160 nM
77 | COCCN1CCN(Cc2cccc(-c3ccc(-c4nc5ccccc5[nH]4)cc3)c2)CC1 | 760 nM
78 | O=C(NOCc1ccccc1)c1cc(Cl)ccc1O | 1100 nM
79 | COc1cc(CNC[C@@H](O)[C@H](Cc2ccccc2)NC(=O)c2cc(C3CCCC3)cc(N3CCCC3=O)c2)cc(OC)c1 | 220 nM
80 | O=C(Nc1ccc(F)c(F)c1)c1ccc(CN2CCCN(Cc3cccc(O)c3)CC2)cc1 | 840 nM
81 | COc1ccc(CNC(=O)Nc2cc3cc(-c4ccc(CN(C)C)cc4)ccc3n3c(C)nnc23)cc1 | 850 nM
82 | COc1ccc(C=CC(=O)N2CCC(CN3CCC(c4c[nH]c5ccccc45)CC3)CC2)cc1OC | 1070 nM
83 | COc1ccc2nccc([C@@H](O)CN3CCC(NC(=O)C(c4cc5ccccc5o4)N4CCN(Cc5ccccc5)CC4)CC3)c2c1 (stereo not given in full) | 160 nM
84 | COc1ccc(CNCc2ccc(F)cc2)cc1-c1ccc(OC)c(S(=O)(=O)NCCN2CCCC2)c1 | 790 nM
85 | CN1CCN(c2ccnc3ccc(NC(=O)Cc4ccc(-c5ccncc5)c5ccccc45)cc23)CC1 | 200 nM
86 | CC(C)COc1ccc(Cl)cc1Cc1nc(-c2nc3c(CN4CCN(C)CC4)cccc3[nH]2)cs1 | 1330 nM
87 | O=C(Cc1ccc(NC(=O)c2ccc(O)c(-c3ccc(Cl)c(Cl)c3)c2)cc1)NCCc1ccc(Cl)c(Cl)c1 | 720 nM
88 | COc1ccc2c(NN=Cc3cccc(F)c3)ccnc2c1 | 210 nM
89 | Cc1nc(-c2cccc(C(=O)NC3CCC(CCN4CCc5ccc(-c6cccnc6)cc5CC4)CC3)c2)no1 (stereo not given) | 760 nM
90 | COc1ccc(S(=O)(=O)N2CCCc3ccc(Br)cc32)cc1N1CCN(C(=O)C(Cl)(Cl)Cl)CC1 | 810 nM
91 | CC(C)CNC(=O)c1cncc(-c2ccc(CNC3Cc4ccccc4C3)cc2)c1 | 700 nM
92 | Cc1cnc(C(=O)Nc2cccc(-c3csc(-c4nc5ccccc5[nH]4)c3)c2)cn1 | 270 nM
93 | CCCCNCC(O)COc1ccccc1-c1ccc(N/N=C/c2cccc3ccccc23)nn1 (stereo not given) | 890 nM
94 | CS(=O)(=O)CCNCc1ccc(-c2ccc3c(Nc4ccc(Cl)cc4F)ccnc3c2)o1 | 670 nM
95 | CCc1ccc(NC(=O)C=NN=C(N)N)cc1 | 900 nM
